What all share (type): functional
One assay concerns Trichophyton rubrum. The assay can be described thus: Antifungal activity against Trichophyton rubrum after 7 days by serial dilution method. Particulars: 168 h.
The next assay concerns Pichia kudriavzevii. The assay can be described thus: Antifungal activity against Candida krusei after 24 hrs by serial dilution method.
For another assay, the system named is Candida tropicalis. The assay can be described thus: Antifungal activity against Candida tropicalis after 24 hrs by serial dilution method.
In the next assay the test system is Candida albicans. Kind of assay: Antifungal activity against Candida albicans after 24 hrs by serial dilution method.
The test system of another assay is Cryptococcus neoformans. The assay can be described thus: Antifungal activity against Cryptococcus neoformans after 72 hrs by serial dilution method.
For a further assay, the system named is Candida parapsilosis. Kind of assay: Antifungal activity against Candida parapsilosis after 24 hrs by serial dilution method. Particulars: Lodderomyces parapsilosis.
The next assay relates to Aspergillus fumigatus. The assay can be described thus: Antifungal activity against Aspergillus fumigatus after 7 days by serial dilution method. The settings on record: 168 h.

Molecules are shown by their SMILES. Values after ≈ are worked out from the molar mass of the structure shown.

For orientation: MIC80 means an inhibitory concentration at the 80% level, which refers to growth in some studies and to a panel of isolates in others. For `OC(CN1CCC(=NOCc2ccc(Cl)cc2Cl)CC1)(Cn1cncn1)c1ccc(F)cc1F` (racemic), the MIC80 against Trichophyton rubrum was 0.0625 µg/mL (≈ 0.122 µM); in the assay on Pichia kudriavzevii it was 0.25 µg/mL (≈ 0.49 µM); in the assay on Candida tropicalis, 0.016 µg/mL (≈ 0.0313 µM); against Candida albicans, 0.016 µg/mL (≈ 0.0313 µM); in the assay on Cryptococcus neoformans, 0.016 µg/mL (≈ 0.0313 µM); with Candida parapsilosis it was 0.016 µg/mL (≈ 0.0313 µM). The compound also gave an MIC80 in the assay on Aspergillus fumigatus of 4 µg/mL (≈ 7.84 µM).
For the compound `CCc1ccc(CON=C2CCN(CC(O)(Cn3cncn3)c3ccc(F)cc3F)CC2)cc1` (racemic), the MIC80 with Trichophyton rubrum worked out at 16 µg/mL (≈ 34.1 µM); in the assay on Pichia kudriavzevii it was 64 µg/mL (≈ 136 µM); in the assay with Candida tropicalis, 64 µg/mL (≈ 136 µM); against Candida albicans, 16 µg/mL (≈ 34.1 µM); against Cryptococcus neoformans, 16 µg/mL (≈ 34.1 µM); against Candida parapsilosis it was 64 µg/mL (≈ 136 µM). In addition, the MIC80 against Aspergillus fumigatus is 64 µg/mL (≈ 136 µM).
`O=[N+]([O-])c1cccc(CON=C2CCN(CC(O)(Cn3cncn3)c3ccc(F)cc3F)CC2)c1` (racemic): the MIC80 stood at 0.25 µg/mL (≈ 0.514 µM) against Trichophyton rubrum; 1 µg/mL (≈ 2.06 µM) in the assay on Pichia kudriavzevii; 1 µg/mL (≈ 2.06 µM) with Candida tropicalis; 1 µg/mL (≈ 2.06 µM) against Candida albicans; 0.0625 µg/mL (≈ 0.128 µM) against Cryptococcus neoformans; 0.0625 µg/mL (≈ 0.128 µM) in the assay with Candida parapsilosis. The same compound yielded an MIC80 with Aspergillus fumigatus of 1 µg/mL (≈ 2.06 µM).
For the compound `OC(CN1CCC(=NOCc2cccc(Br)c2)CC1)(Cn1cncn1)c1ccc(F)cc1F` (racemic), the MIC80 stood at 0.0625 µg/mL (≈ 0.12 µM) with Trichophyton rubrum; 0.25 µg/mL (≈ 0.48 µM) in the assay with Pichia kudriavzevii; 0.004 µg/mL (≈ 0.00769 µM) in the assay on Candida tropicalis; 0.016 µg/mL (≈ 0.0307 µM) in the assay with Candida albicans; 0.016 µg/mL (≈ 0.0307 µM) in the assay with Cryptococcus neoformans; 0.016 µg/mL (≈ 0.0307 µM) in the assay with Candida parapsilosis. In the assay on Aspergillus fumigatus, this compound gave an MIC80 of 1 µg/mL (≈ 1.92 µM).
With `COc1ccc(CON=C2CCN(CC(O)(Cn3cncn3)c3ccc(F)cc3F)CC2)cc1` (racemic), the MIC80 in the assay on Trichophyton rubrum came to 4 µg/mL (≈ 8.48 µM); in the assay with Pichia kudriavzevii, 4 µg/mL (≈ 8.48 µM); in the assay with Candida tropicalis it was 4 µg/mL (≈ 8.48 µM); against Candida albicans, 1 µg/mL (≈ 2.12 µM); against Cryptococcus neoformans, 4 µg/mL (≈ 8.48 µM); with Candida parapsilosis, 4 µg/mL (≈ 8.48 µM). In the assay on Aspergillus fumigatus, this compound came in with an MIC80 of 64 µg/mL (≈ 136 µM).
Consider `COc1cccc(CON=C2CCN(CC(O)(Cn3cncn3)c3ccc(F)cc3F)CC2)c1` (racemic), for which the MIC80 is 16 µg/mL (≈ 33.9 µM) in the assay on Trichophyton rubrum; 64 µg/mL (≈ 136 µM) in the assay with Pichia kudriavzevii; 64 µg/mL (≈ 136 µM) against Candida tropicalis; 16 µg/mL (≈ 33.9 µM) against Candida albicans; 16 µg/mL (≈ 33.9 µM) against Cryptococcus neoformans; 64 µg/mL (≈ 136 µM) against Candida parapsilosis. The compound also displayed an MIC80 against Aspergillus fumigatus of 64 µg/mL (≈ 136 µM).
As to `ON=C1CCN(CC(O)(Cn2cncn2)c2ccc(F)cc2F)CC1` (stereo not drawn), the MIC80 stood at 16 µg/mL (≈ 45.5 µM) in the assay on Trichophyton rubrum; 4 µg/mL (≈ 11.4 µM) against Pichia kudriavzevii; 1 µg/mL (≈ 2.85 µM) in the assay on Candida tropicalis; 1 µg/mL (≈ 2.85 µM) against Candida albicans; 1 µg/mL (≈ 2.85 µM) in the assay on Cryptococcus neoformans; 16 µg/mL (≈ 45.5 µM) against Candida parapsilosis. The same compound gave an MIC80 in the assay with Aspergillus fumigatus above 64 µg/mL.
As for `OC(CN1CCC(=NOCc2ccc(Cl)c(Cl)c2)CC1)(Cn1cncn1)c1ccc(F)cc1F` (racemic), the MIC80 against Trichophyton rubrum amounted to 0.0625 µg/mL (≈ 0.122 µM); in the assay with Pichia kudriavzevii, 0.25 µg/mL (≈ 0.49 µM); with Candida tropicalis it was 0.25 µg/mL (≈ 0.49 µM); in the assay with Candida albicans it was 0.25 µg/mL (≈ 0.49 µM); against Cryptococcus neoformans it was 0.0625 µg/mL (≈ 0.122 µM); in the assay on Candida parapsilosis it was 0.25 µg/mL (≈ 0.49 µM). In the assay on Aspergillus fumigatus, this compound yielded an MIC80 of 1 µg/mL (≈ 1.96 µM).
Take `OC(CN1CCC(=NOCc2ccccc2F)CC1)(Cn1cncn1)c1ccc(F)cc1F` (racemic): the MIC80 against Trichophyton rubrum stood at 0.0625 µg/mL (≈ 0.136 µM); in the assay on Pichia kudriavzevii, 0.25 µg/mL (≈ 0.544 µM); against Candida tropicalis, 0.001 µg/mL (≈ 0.00218 µM); in the assay with Candida albicans, 0.016 µg/mL (≈ 0.0348 µM); against Cryptococcus neoformans it was 0.004 µg/mL (≈ 0.00871 µM); against Candida parapsilosis, 0.0625 µg/mL (≈ 0.136 µM). The compound further had an MIC80 against Aspergillus fumigatus of 1 µg/mL (≈ 2.18 µM).
Regarding `OC(CN1CCC(=NOCc2ccc(Cl)cc2)CC1)(Cn1cncn1)c1ccc(F)cc1F` (racemic), the MIC80 was 0.0625 µg/mL (≈ 0.131 µM) with Trichophyton rubrum; 0.25 µg/mL (≈ 0.525 µM) against Pichia kudriavzevii; 0.0625 µg/mL (≈ 0.131 µM) against Candida tropicalis; 0.0625 µg/mL (≈ 0.131 µM) in the assay with Candida albicans; 0.001 µg/mL (≈ 0.0021 µM) in the assay on Cryptococcus neoformans; 0.016 µg/mL (≈ 0.0336 µM) against Candida parapsilosis. The compound also yielded an MIC80 in the assay on Aspergillus fumigatus of 1 µg/mL (≈ 2.1 µM).
In the case of `C=Cc1ccc(CON=C2CCN(CC(O)(Cn3cncn3)c3ccc(F)cc3F)CC2)cc1` (racemic), the MIC80 against Trichophyton rubrum was found to be 16 µg/mL (≈ 34.2 µM); against Pichia kudriavzevii it was 64 µg/mL (≈ 137 µM); with Candida tropicalis, 64 µg/mL (≈ 137 µM); against Candida albicans it was 16 µg/mL (≈ 34.2 µM); against Cryptococcus neoformans, 16 µg/mL (≈ 34.2 µM); against Candida parapsilosis, 64 µg/mL (≈ 137 µM). Besides, the MIC80 against Aspergillus fumigatus was 64 µg/mL (≈ 137 µM).
As to `Cc1cccc(CON=C2CCN(CC(O)(Cn3cncn3)c3ccc(F)cc3F)CC2)c1` (racemic), the MIC80 amounted to 16 µg/mL (≈ 35.1 µM) against Trichophyton rubrum; 64 µg/mL (≈ 141 µM) in the assay on Pichia kudriavzevii; 64 µg/mL (≈ 141 µM) in the assay on Candida tropicalis; 16 µg/mL (≈ 35.1 µM) with Candida albicans; 16 µg/mL (≈ 35.1 µM) against Cryptococcus neoformans; 64 µg/mL (≈ 141 µM) in the assay on Candida parapsilosis. Further, the MIC80 in the assay with Aspergillus fumigatus turned out to be 64 µg/mL (≈ 141 µM).
Turning to `OC(CN1CCC(=NOCc2cccc(Cl)c2)CC1)(Cn1cncn1)c1ccc(F)cc1F` (racemic), the MIC80 in the assay with Trichophyton rubrum was determined as 0.016 µg/mL (≈ 0.0336 µM); against Pichia kudriavzevii it was 0.25 µg/mL (≈ 0.525 µM); in the assay with Candida tropicalis, 0.0625 µg/mL (≈ 0.131 µM); against Candida albicans it was 0.016 µg/mL (≈ 0.0336 µM); against Cryptococcus neoformans it was 0.001 µg/mL (≈ 0.0021 µM); with Candida parapsilosis, 0.0625 µg/mL (≈ 0.131 µM). In addition, the MIC80 against Aspergillus fumigatus turned out to be 1 µg/mL (≈ 2.1 µM).
As for `OC(CN1CCC(=NOCc2ccccc2Br)CC1)(Cn1cncn1)c1ccc(F)cc1F` (racemic), the MIC80 in the assay on Trichophyton rubrum amounted to 0.0625 µg/mL (≈ 0.12 µM); in the assay with Pichia kudriavzevii, 0.25 µg/mL (≈ 0.48 µM); against Candida tropicalis it was 0.004 µg/mL (≈ 0.00769 µM); in the assay on Candida albicans, 0.016 µg/mL (≈ 0.0307 µM); in the assay with Cryptococcus neoformans, 0.004 µg/mL (≈ 0.00769 µM); with Candida parapsilosis, 0.0625 µg/mL (≈ 0.12 µM). Also, the MIC80 against Aspergillus fumigatus turned out to be 1 µg/mL (≈ 1.92 µM).

The values are drawn from ChEMBL document CHEMBL1157917, “Structure-based rational design, synthesis and antifungal activity of oxime-containing azole derivatives” (2010).
